Laboratory results: patent US12648924B2, “Prevention and treatment of effects of aging and age-associated disorders with ketone supplementation” (priority 2020, dated 2026)

How the values were obtained:
[1] = KDE in LPS-induced sepsis, inflammation-induced atrophy, ad libitum fed (Experiment 5b); format: in vivo, VM/Dk mice; settings: single 4 mL/kg KDE gavage after 10 mg/kg LPS
Procedure: VM-M3 Cell and Lipopolysaccharide Implantation: For VM-M3 implantation in the model characterization experiments (FIG. 1-5; FIG. 8-12), ˜1×10^6 VM-M3 cells (T. Seyfried, Boston College) in 300 μL sterile PBS (CA-M and CA-F) or 300 μL sterile PBS-only (SH-M and SH-F) were injected subcutaneously into the left abdominal flank resulting in primary tumor formation at the injection site, and subsequently systemically metastasizes to most major organs, namely the liver, kidneys, spleen, lungs, and brain. […] This method of implantation further minimized variability in markers of tumor progression, and therefore provides a useful optional method technique in the VM-M3 model for efficient analysis of potential therapeutic agents. To determine KDE-induced effects on CACS, 1×10^6 VM-M3 cells in 300 μL sterile PBS (KDE+VM-M3 and VM-M3) or 300 μL sterile PBS-only (Sham) were administered intraperitoneally (FIG. 6; FIG. 13). For LPS administration in the septic atrophy model, LPS (Escherichia coli 055:B5; L2880; Sigma-Aldrich, St. Louis, MO) was diluted in sterile PBS and administered intraperitoneally at 10 mg/kg as pilot work indicated a maximal, yet non-fatal, ˜15% bodyweight reduction at 10 mg/kg dose.
Body Composition: Bodyweight was assessed daily at the same time (7:00-9:00 AM). At EOL, bodyweight and weights of ascites fluid, primary tumor, calf (combined gastrocnemius & soleus), anterior thigh (quadriceps), intraperitoneal fat pads, liver and spleen tissue were measured (Table 1; Experiment 1a&b). A follow-up time course experiment was conducted at weeks 1, 2, and 3 to assess weekly changes in bodyweight and aforementioned tissues for both cancer and sham-matched control animals (Experiment 2). For follow up evaluation of KDE in CACS, bodyweight was tracked daily with tissue weight determined at 21-days, prior to EOL (Experiment 4c). All tissue weights were gathered at harvest and normalized to baseline bodyweight (not influenced by cachexia progression) to allow for appropriate comparison between animals. For evaluation of KDE in LPS, bodyweight was tracked daily for evaluation pre- and post-LPS administration (Experiment 5b&c).
Food Intake and Ketone Diester Administration: Standard diet dry food (2018 Teklad Global 18% Protein Rodent Diet, Harlan) was mixed with deionized water (1 g dry food/mL deionized water) into a consistent paste and placed on a 100×15 mm dish. Food intake was tracked daily at the same time (7:00-9:00) and replaced every other day to ensure fresh food. […] As pilot work indicated potential water evaporation in food paste in ventilated cages, dehydration standard curve was calculated across various volumes of plated food (5, 10, 25.0, 50.0, 100 g/food) with and without KDE over a two-day period. […]

[2] = KDE in LPS-induced atrophy, pair-fed animals (Experiment 5c); format: in vivo, VM/Dk mice; settings: single 4 mL/kg KDE gavage after 10 mg/kg LPS, 1 day post LPS, vs LPS group

CC(=O)CC(=O)OCCC(C)OC(=O)CC(C)=O (centres unmarked) [KDE, R/S 1,3-butanediol acetoacetate diester]
anorexic symptoms (percentage caloric restriction) ([1]; 1 day post LPS): significantly reduced
attenuation of bodyweight loss ([1]; first 24 hours, vs LPS with water): 47%
chronic LPS-induced bodyweight loss ([1]; followed 13 days): significantly attenuated
time to recovery (return to baseline bodyweight) ([1]; LPS alone did not recover within 13 days): ≤ 10 days
reduction of bodyweight loss [2]: 28%
